PMC4521712, “Enhanced Bacterial α(2,6)-Sialyltransferase Reaction through an Inhibition of Its Inherent Sialidase Activity by Dephosphorylation of Cytidine-5'-Monophosphate” (PLoS ONE, 2015)

How the values were obtained:
Type in all cases: biochemical
[1] = target: T1, P224-ST (Photobacterium sp. JT-ISH-224, UniProt A8QYL1); test: HPLC of AA-lactose released from AA-6'-sialyllactose (sialidase activity); conditions: 1 mM, 50 μM AA-6'-sialyllactose, 100 mM sodium phosphate pH 6.0, 37°C, 2 h
T1 construct: gene pst6-224; residues 18-514 with catalytic domain, pColdII N-terminal His-tag (kept), codon-optimised gene, E. coli BL21, Ni-NTA
T1 sequence (A8QYL1 18-514): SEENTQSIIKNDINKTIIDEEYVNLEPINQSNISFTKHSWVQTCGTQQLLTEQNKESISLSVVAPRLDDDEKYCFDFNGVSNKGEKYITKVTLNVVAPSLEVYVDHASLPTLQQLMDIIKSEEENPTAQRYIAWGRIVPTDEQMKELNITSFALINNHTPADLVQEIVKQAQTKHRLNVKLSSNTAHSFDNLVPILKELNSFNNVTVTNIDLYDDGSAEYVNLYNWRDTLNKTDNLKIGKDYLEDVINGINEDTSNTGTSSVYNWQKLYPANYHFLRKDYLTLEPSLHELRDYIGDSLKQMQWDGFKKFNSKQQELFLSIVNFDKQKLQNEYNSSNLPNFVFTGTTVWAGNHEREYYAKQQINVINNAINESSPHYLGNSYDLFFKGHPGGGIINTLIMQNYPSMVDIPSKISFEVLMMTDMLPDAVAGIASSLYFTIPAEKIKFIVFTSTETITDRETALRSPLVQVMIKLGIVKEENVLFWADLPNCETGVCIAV

[2] = target: T2, P145-ST (Photobacterium leiognathi, UniProt A8R0T5); test: as above; conditions: inhibitor of sialidase activity, 0.01-10 mM; 50 μM AA-6'-sialyllactose, 100 mM sodium phosphate pH 6.0, 37°C, 2 h
T2 construct: gene plst6; residues 16-497 with catalytic domain, pColdII N-terminal His-tag (kept), codon-optimised gene, E. coli BL21, Ni-NTA
T2 sequence (A8R0T5 16-497): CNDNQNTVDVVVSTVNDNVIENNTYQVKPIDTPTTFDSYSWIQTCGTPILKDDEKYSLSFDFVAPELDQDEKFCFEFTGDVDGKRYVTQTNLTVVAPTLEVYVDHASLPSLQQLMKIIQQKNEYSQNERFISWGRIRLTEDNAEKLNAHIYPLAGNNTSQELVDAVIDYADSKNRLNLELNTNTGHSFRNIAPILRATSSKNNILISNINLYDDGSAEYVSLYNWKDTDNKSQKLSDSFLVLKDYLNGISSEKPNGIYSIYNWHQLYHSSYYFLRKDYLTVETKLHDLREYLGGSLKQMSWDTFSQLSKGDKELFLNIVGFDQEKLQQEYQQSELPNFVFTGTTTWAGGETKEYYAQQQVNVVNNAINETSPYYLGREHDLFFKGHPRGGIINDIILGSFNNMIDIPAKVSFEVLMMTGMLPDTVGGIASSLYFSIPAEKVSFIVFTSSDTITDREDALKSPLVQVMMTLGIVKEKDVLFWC

[3] = target: T3, Pd-ST (Photobacterium damselae, UniProt O66375); test: as above; conditions: 1 mM, 50 μM AA-6'-sialyllactose, 100 mM sodium phosphate pH 6.0, 37°C, 2 h
T3 construct: gene bst; residues 16-497 with catalytic domain, pColdII N-terminal His-tag (kept), codon-optimised gene, E. coli BL21, Ni-NTA
T3 sequence (O66375 16-497): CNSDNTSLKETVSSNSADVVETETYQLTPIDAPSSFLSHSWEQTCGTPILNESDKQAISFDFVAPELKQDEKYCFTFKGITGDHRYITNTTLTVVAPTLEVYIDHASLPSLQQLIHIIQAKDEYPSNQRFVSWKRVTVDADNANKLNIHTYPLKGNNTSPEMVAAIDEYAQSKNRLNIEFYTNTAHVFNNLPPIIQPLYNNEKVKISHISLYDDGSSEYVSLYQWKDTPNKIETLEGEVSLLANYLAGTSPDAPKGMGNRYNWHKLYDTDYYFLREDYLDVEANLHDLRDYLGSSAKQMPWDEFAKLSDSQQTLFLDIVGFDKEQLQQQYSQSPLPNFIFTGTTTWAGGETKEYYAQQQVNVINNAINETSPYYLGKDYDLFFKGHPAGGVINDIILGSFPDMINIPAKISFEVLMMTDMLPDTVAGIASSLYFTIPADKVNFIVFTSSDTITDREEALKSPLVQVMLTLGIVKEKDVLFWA

[4] = target: T2, P145-ST; test: as above; conditions: 50 μM AA-6'-sialyllactose, 100 mM sodium phosphate pH 6.0, 37°C, 2 h
[5] = target: T3, Pd-ST; test: HPLC of sialylated AA-glycans, Michaelis-Menten fit; conditions: sialyltransferase; 0.5 mM CMP-Neu5Ac, 100 mM Tris-HCl pH 8.0, 30°C, 5 min; labelled compound; read-out: apparent Km
[6] = target: T2, P145-ST; test: as above; conditions: sialyltransferase; 0.5 mM CMP-Neu5Ac, 100 mM Tris-HCl pH 8.0, 30°C, 5 min; labelled compound; read-out: apparent Km
Excerpt: HPLC of sialylated AA-glycans, Michaelis-Menten fit on P145-ST | The apparent Km values of Pd-, P224-, and P145-ST for G2-AA substrate are […]

[7] = target: T1, P224-ST; test: as above; conditions: sialyltransferase; 0.5 mM CMP-Neu5Ac, 100 mM Tris-HCl pH 8.0, 30°C, 5 min; labelled compound; read-out: apparent Km
Excerpt: HPLC of sialylated AA-glycans, Michaelis-Menten fit on P224-ST | The apparent Km values of Pd-, P224-, and P145-ST for G2-AA substrate are […]

[8] = inhibitor of sialidase activity
[9] = activator of sialidase activity

In the case of `Nc1ccn([C@@H]2O[C@H](COP(=O)(O)OP(=O)(O)O)[C@@H](O)[C@H]2O)c(=O)n1` [CDP], the “HPLC of AA-lactose released from AA-6'-sialyllactose (sialidase activity)” value (from here on “HPLC of AA-lactose released”) [1, 8] is reported as “all other tested nucleotides including CDP, CTP, and cytidine showed decreasing effects”, the “HPLC of AA-lactose released” value [2] is reported as “CTP and CDP inhibited sialidase activity in a concentration-dependent manner” and the “HPLC of AA-lactose released” value [3, 8] is reported as “all other tested nucleotides including CDP, CTP, and cytidine showed decreasing effects”.
With `Nc1ccn([C@@H]2O[C@H](COP(=O)(O)O)[C@@H](O)[C@H]2O)c(=O)n1` [CMP] the “HPLC of AA-lactose released” value [1, 9] was “the addition of CMP increased the sialidase activity”, the “% lactose formed at 10 mM” value [4, 9] was 43% and the “HPLC of AA-lactose released” value [3, 9] was “the addition of CMP increased the sialidase activity”.
With `Nc1ccn([C@@H]2O[C@H](COP(=O)(O)OP(=O)(O)OP(=O)(O)O)[C@@H](O)[C@H]2O)c(=O)n1` [CTP] the “HPLC of AA-lactose released” value [1, 8] was “all other tested nucleotides including CDP, CTP, and cytidine showed decreasing effects”, the “% lactose formed at 10 mM” value [4, 8] was 2% and the “HPLC of AA-lactose released” value [3, 8] was “all other tested nucleotides including CDP, CTP, and cytidine showed decreasing effects”.
For `CC(=O)N[C@H]1[C@H](O[C@@H]([C@H](O)[C@H](CNc2ccccc2C(=O)O)NC(C)=O)[C@H](O)CO)O[C@H](CO)[C@@H](O[C@@H]2O[C@H](CO[C@H]3O[C@H](CO)[C@@H](O)[C@H](O)[C@@H]3O[C@@H]3O[C@H](CO)[C@@H](O[C@@H]4O[C@H](CO)[C@H](O)[C@H](O)[C@H]4O)[C@H](O)[C@H]3NC(C)=O)[C@@H](O)[C@H](O[C@H]3O[C@H](CO)[C@@H](O)[C@H](O)[C@@H]3O[C@@H]3O[C@H](CO)[C@@H](O[C@@H]4O[C@H](CO)[C@H](O)[C@H](O)[C@H]4O)[C@H](O)[C@H]3NC(C)=O)[C@@H]2O)[C@@H]1O` [G2-AA, AA-labeled G2 glycan], the Km [5] was 36.1 ± 4.9 µM, the Km [6] was 27.8 ± 5.8 µM and the Km [7] was 39.2 ± 4.7 µM.
In the case of `Nc1ccn([C@@H]2O[C@H](CO)[C@@H](O)[C@H]2O)c(=O)n1` [cytidine], the “HPLC of AA-lactose released” value [1, 8] is reported as “all other tested nucleotides including CDP, CTP, and cytidine showed decreasing effects”, the “HPLC of AA-lactose released” value [2] is reported as “cytidine appeared to inhibit sialidase activity in an on-and-off mode” and the “HPLC of AA-lactose released” value [3, 8] is reported as “all other tested nucleotides including CDP, CTP, and cytidine showed decreasing effects”.
